Reference: patent publication US10913711B2, “Potent and selective inhibitors of monoamine transporters; method of making; and use thereof” (priority 2013, dated 2021)
Where two headings read alike, the source gives them in different places.

Columns and labels:
ON(O)CCc1ccccc1 = assay: cells, lysate or membranes; details: other: [3H]DA uptake, COS7 cells; pH 7.4; 37.0 °C
human SERT wild type = human SERT wild type (Homo sapiens (Human), UniProt P31645); assay type: cell-based; details: read-out: hSERT WT Ki [S.E. interval]
Description: (§1) Molecular Pharmacology Site-directed mutagenesis: Synthetic cDNA encoding the human DAT (synDAT) were subcloned into pcDNA3 (Invitrogen, Carlsbad, Calif.). cDNA encoding the human SERT (hSERT) was cloned into the pUbilz expression vector. Mutations herein were generated by the QuickChange method (adapted from Stratagene, La Jolla, Calif.) and confirmed by restriction enzyme mapping and DNA sequencing. Positive clones were amplified by transformation into XL1 blue competent cells (Stratagene) and positive colony picked and grown in LB media over night at 37° C. in an orbital incubator (Infors) @ 200 rpm. Plasmids were harvested using the maxi prep kit provided by Qiagen according to the manufacturer's manual.
(§2) Uptake assays were performed essentially as previously described to Cha, J. H.; Zou, M. F.; Adkins, E. M.; Rasmussen, S. G.; Loland, C. J.; Schoenenberger, B.; Gether, U.; Newman, A. H. Rhodamine-Labeled 2beta-Carbomethoxy-3beta-(3,4-Dichlorophenyl)Tropane Analogues as High-Affinity Fluorescent Probes for the Dopamine Transporter. […] Transiently transfected COS-7 cells were plated in 12-well (3*10^5 cells/well) or 24-well dishes (10^5 cells/well) coated with poly-ornithine to achieve an uptake level of no more than 10% of total added radioligand. The uptake assays were carried out 2 days after transfection. Prior to the experiment, the cells were washed once in 500 μl of uptake buffer buffer (25 mM 4-(2-hydroxyethyl)-1-piperazineethanesulfonic acid (HEPES), 130 mM NaCl, 5.4 mM KCl, 1.2 mM CaCl2, 1.2 mM MgSO4, 1 mM L-ascorbic acid, 5 mM D-glucose, and 1 μM of the catechol-O-methyltransferase inhibitor Ro 41-0960 (Sigma), pH 7.4) at room temperature (RT). […] All samples were transferred to 24-well counting plates and 500 μL (or 600 μL) of Opti-phase Hi Safe 3 scintillation fluid (Perkin Elmer) was added followed by counting of the plates in a Wallac Tri-Lux β-scintillation counter (Perkin Elmer). Nonspecific uptake was determined in the presence of 5 μM paroxetine for hSERT and 50 μM nomifensine for hDAT expressing cells. All determinations were performed in triplicate.

human SERT T497A mutant = human SERT T497A mutant (Homo sapiens (Human), UniProt P31645, T497A); assay type: cell-based; details: for Ki: read-out: hSERT T497A Ki [S.E. interval]
Description: as §1, §2

human DAT wild type = human DAT wild type (Homo sapiens (Human), UniProt Q01959); assay: [3H]DA uptake inhibition in intact COS7 cells, hDAT WT; assay type: cell-based; details: [3H]DA uptake inhibition potency, read-out: hDAT WT Ki [S.E. interval]
human DAT A480T mutant = human DAT A480T mutant (Homo sapiens (Human), UniProt Q01959, A480T); assay: [3H]DA uptake inhibition in intact COS7 cells, hDAT A480T; details: for Ki: read-out: hDAT A480T Ki [S.E. interval], [3H]DA uptake inhibition potency; for affinity at DAT A480T compared to DAT WT: uptake inhibition
Chain of human DAT A480T mutant (Q01959 whole entry A480T): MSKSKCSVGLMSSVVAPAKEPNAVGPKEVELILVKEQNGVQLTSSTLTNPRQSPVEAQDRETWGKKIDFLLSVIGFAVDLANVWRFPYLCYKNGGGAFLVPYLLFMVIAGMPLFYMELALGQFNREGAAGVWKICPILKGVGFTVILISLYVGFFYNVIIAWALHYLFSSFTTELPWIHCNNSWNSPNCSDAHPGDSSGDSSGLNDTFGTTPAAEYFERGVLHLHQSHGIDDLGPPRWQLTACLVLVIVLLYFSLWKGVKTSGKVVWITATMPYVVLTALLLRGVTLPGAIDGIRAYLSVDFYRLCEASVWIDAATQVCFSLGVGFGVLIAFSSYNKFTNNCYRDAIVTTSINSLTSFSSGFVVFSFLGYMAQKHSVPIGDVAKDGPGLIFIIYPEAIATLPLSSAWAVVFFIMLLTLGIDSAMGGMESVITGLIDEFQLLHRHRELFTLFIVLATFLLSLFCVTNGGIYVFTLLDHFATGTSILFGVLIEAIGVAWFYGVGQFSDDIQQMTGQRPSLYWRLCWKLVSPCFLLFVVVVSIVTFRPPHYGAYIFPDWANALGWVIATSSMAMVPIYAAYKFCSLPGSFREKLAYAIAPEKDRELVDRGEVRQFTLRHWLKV

[1] = Phase II glucuronidation stability in mouse liver microsomes (UDPGA); assay type: in vitro ADME
Procedure: Phase I and phase II metabolic stability assay for was conducted in mouse liver microsomes. For phase I metabolism, the reaction was carried out with 100 mM potassium phosphate buffer, pH 7.4, in the presence of NADPH regenerating system (1.3 mM NADPH, 3.3 mM glucose 6-phosphate, 3.3 mM MgCl2, 0.4 U/mL glucose-6-phosphate dehydrogenase, 50 μM sodium citrate). Reactions in duplicate were initiated by addition of the liver microsomes to the incubation mixture (compound final concentration was 10 μM; 0.5 mg/mL microsomes). For phase II glucuronidation reaction compound was added to TRIS-HCl buffer (50 mM, pH 7.5) with microsomes (0.5 mg/mL), along with MgCl2 (8 mM), and alamethicin (25 μg/mL) and pre-incubated at 37° C. The reaction was initiated (in duplicate) with UDPGA at a final concentration of 2 mM. Negative controls in the absence NADPH and UDPGA were carried for both phase I and phase II metabolism respectively, to determine the specific cofactor free degradation. […] Compound disappearance was monitored over time using a liquid chromatography and tandem mass spectrometry (LC/MS/MS) method.
Compounds were separated on an Agilent 1290 UPLC system with a c18 column using a gradient run of 55:45-5:95 water:acetonitrile over 3.2 minutes and detected on an Agilent 6520 QTOF mass spectrometer.

NET = NET (Rattus norvegicus (Rat), UniProt Q9WTR4); assay: Norepinephrine Transporter Binding Assay ([3H]Nisoxetine, rat frontal cortex membranes)
Chain of NET (Q9WTR4 entry or part of it): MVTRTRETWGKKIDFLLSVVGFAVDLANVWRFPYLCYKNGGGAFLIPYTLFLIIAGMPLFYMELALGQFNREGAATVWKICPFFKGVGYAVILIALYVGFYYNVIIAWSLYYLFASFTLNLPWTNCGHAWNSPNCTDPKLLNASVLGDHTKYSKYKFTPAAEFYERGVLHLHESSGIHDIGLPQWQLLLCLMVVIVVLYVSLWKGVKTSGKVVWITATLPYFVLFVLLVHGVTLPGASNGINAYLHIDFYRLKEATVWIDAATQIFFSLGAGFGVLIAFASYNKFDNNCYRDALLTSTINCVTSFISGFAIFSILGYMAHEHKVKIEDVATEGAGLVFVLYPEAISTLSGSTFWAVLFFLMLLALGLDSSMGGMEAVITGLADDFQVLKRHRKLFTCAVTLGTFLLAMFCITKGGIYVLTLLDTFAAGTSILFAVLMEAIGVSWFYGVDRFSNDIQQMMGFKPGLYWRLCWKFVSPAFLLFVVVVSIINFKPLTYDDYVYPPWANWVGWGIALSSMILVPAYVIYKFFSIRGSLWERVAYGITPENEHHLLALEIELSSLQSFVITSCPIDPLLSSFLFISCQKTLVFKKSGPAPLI
Procedure: Binding affinities of all compounds were evaluated at the DAT, SERT, and NET in rat brain membranes using previously described methods:
Norepinephrine Transporter Binding Assay. Brains from male Sprague-Dawley rats weighing 200-225 g (Taconic Labs, Germantown, N.Y.) were removed, frontal cortex dissected and rapidly frozen. Membranes were prepared by homogenizing tissues in 20 volumes (w/v) of 50 mM Tris containing 120 mM NaCl and 5 mM KCl, (pH 7.4 at 25° C.), using a Brinkman Polytron and centrifuged at 50,000×g for 10 min at 4° C. The resulting pellet was resuspended in buffer, recentrifuged and resuspended in buffer to a concentration of 80 mg/mL. Ligand binding experiments were conducted in assay tubes containing 0.5 mL buffer for 60 min at 0-4° C. […] Nonspecific binding was determined using 1 mM desipramine. Incubations were terminated by rapid filtration through Whatman GF/B filters, presoaked in 0.05% polyethylenimine, using a Brandel R48 filtering manifold (Brandel Instruments Gaithersburg, Md.). The filters were washed twice with 3 mL cold buffer and transferred to scintillation vials. Beckman Ready Value (3.0 mL) was added and the vials were counted using a Beckman 6000 liquid scintillation counter (Beckman Coulter Instruments, Fullerton, Calif.). […] All compounds were tested as racemic mixtures.

[2] = Brain concentrations in mice; details: mouse brain; for IV brain Conc. ng/g ± SD: 10 mg/kg IV; for PO brain Conc. ng/g ± SD: 10 mg/kg PO
Procedure: Plasma was harvested from blood by centrifugation. Additionally at two selected time points (i.e. 30 min and 2 h) brains were collected following both oral and IV dosing. Samples were extracted from plasma by a single one-step protein precipitation method (as described in bioanalysis section below). For brain tissue, whole brains were weighed and homogenized in two times the volume of acetonitrile, followed by vortexing and centrifugation. Once extracted, the samples were analyzed via LC/MS/MS (as described in bioanalysis section below). Non-compartmental-analysis module in WinNonlin™ (version 5.3) was used to assess pharmacokinetic parameters including maximal concentration (Cmax), time to Cmax (Tmax), area under the curve (AUClast), area extrapolated to infinity (AUCO-∞), terminal disposition rate constant (ke), and terminal half-life (t½).
Briefly, plasma samples were thawed on ice prior to extraction. Samples (50 μL) were extracted in 300 μL acetonitrile containing 1000 nM losartan as internal standard. For brain, 50 μL of the supernatant from homogenized tissue was extracted with 100 μL acetonitrile containing 1000 nM losartan as internal standard. Extracts were centrifuged at 16000×g at 4° C. for 10 minutes. Supernatants were transferred to a new siliconized tube and dried under N2 at 45° C. for 30 min. Samples were reconstituted with 100 μL of 30% acetonitrile, vortexed and centrifuged. Supernatants (95 μL) were transferred to a 250 μL polypropylene autosampler vials sealed with a Teflon cap and a volume of 10 μL was injected onto the ultra-performance liquid chromatography (UPLC) instrument for quantitative analysis using a temperature-controlled autosampler operating at 10° C.
The instrument was controlled by the Xcalibur software 2.3 (Thermo Scientific). Samples were introduced to the interface through Turbo Ion Spray with the temperature setting at 350° C.
Chromatographic analysis was performed using an Accela™ ultra high-performance system consisting of an analytical pump, and an autosampler coupled with TSQ Vantage mass spectrometer (Thermo Fisher Scientific Inc., Waltham Mass.).

SERT = SERT (Rattus norvegicus (Rat), UniProt P31652); details: 2i v. 2g (Table 1); 4c v. 4a (Table 2)
Chain of SERT (P31652 whole entry): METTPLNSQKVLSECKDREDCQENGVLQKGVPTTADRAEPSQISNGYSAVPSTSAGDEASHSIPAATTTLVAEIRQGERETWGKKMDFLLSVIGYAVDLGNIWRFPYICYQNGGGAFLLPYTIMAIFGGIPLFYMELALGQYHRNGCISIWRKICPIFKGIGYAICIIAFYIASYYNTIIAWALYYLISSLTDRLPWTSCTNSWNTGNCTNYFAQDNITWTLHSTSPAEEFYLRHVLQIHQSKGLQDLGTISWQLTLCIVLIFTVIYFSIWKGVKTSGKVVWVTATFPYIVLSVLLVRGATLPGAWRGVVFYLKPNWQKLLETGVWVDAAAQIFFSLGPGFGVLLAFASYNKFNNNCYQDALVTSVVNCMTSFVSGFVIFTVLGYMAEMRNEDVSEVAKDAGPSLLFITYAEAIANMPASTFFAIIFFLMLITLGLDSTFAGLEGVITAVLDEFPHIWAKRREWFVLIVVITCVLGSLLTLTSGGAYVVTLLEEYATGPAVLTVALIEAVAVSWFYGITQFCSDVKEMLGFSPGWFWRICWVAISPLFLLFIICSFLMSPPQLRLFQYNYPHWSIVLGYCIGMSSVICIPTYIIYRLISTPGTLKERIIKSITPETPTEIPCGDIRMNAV
Procedure: Brains from male Sprague-Dawley rats weighing 200-225 g (Taconic Labs, Germantown, N.Y.) were removed, midbrain dissected and rapidly frozen. […] Nonspecific binding was determined using 10 mM fluoxetine. […] The filters were washed twice with 3 mL cold buffer and transferred to scintillation vials. Beckman Ready Value (3.0 mL) was added and the vials were counted the next day using a Beckman 6000 liquid scintillation counter (Beckman Coulter Instruments, Fullerton, Calif.). […] Data were analyzed with GraphPad Prism software (San Diego, Calif.).

DAT = DAT (Rattus norvegicus (Rat), UniProt P23977); assay: Dopamine Transporter Binding Assay ([3H]WIN 35428, rat striatal membranes)
Chain of DAT (P23977 whole entry): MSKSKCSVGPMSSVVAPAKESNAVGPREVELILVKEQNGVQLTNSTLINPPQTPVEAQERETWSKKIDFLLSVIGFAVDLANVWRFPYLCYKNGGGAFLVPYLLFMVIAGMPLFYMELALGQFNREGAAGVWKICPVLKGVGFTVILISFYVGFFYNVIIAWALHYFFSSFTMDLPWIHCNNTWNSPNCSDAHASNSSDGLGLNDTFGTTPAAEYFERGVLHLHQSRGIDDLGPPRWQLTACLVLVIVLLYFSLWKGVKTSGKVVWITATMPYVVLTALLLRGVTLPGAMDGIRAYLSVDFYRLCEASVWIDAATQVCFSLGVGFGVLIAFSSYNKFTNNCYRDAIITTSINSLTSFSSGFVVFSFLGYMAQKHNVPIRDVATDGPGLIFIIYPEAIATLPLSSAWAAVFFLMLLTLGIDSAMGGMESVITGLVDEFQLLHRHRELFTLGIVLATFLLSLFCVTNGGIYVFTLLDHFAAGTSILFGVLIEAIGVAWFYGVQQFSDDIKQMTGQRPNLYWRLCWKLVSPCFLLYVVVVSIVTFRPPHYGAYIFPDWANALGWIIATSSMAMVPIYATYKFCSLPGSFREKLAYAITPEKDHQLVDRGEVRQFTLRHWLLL

[3] = substrate: ON(O)CCc1ccccc1; assay: [3H]DA uptake inhibition in intact COS7 cells, hDAT WT; assay type: cell-based, human; details: other: [3H]DA uptake, pH 7.4, 37.0 °C

Row | Molecule | Ki (human SERT wild type) [nM] | Ki (human SERT T497A mutant) [nM] | Ki (human DAT wild type) [nM] | Ki (human DAT A480T mutant) [nM] | affinity at DAT A480T compared to DAT WT (human DAT A480T mutant) | Ki (NET) [nM] | also measured
1 | human DAT A480T mutant (Homo sapiens; A480T) | – | – | – | – | – | – | Km (ON(O)CCc1ccccc1): 1,930 nM
2 | CNC(=O)CSC(c1ccc(Cl)cc1)c1ccc(Cl)cc1 [Compound 2h, 2-((Bis(4-chlorophenyl)methyl)thio)-N-methylacetamide] | 8300 | 27000 | 3700 | 2300 | essentially the same | – | affinity at SERT T497A compared to SERT WT (human SERT T497A mutant; uptake inhibition, COS7 cells): significantly decreased
3 | Cc1cc(=O)oc2cc(O)ccc12 [4 Methyl Umbelliferone, 4-methylumbelliferone] | – | – | – | – | – | – | Phase II, parent compound remaining ([1]; 0 min): 100%; Phase II, parent compound remaining ([1]; 60 min): 3.10%
4 | NCCSC(c1ccccc1)c1ccccc1 [Compound 4a, 2-(benzhydrylthio)ethan-1-amine] | 690 | 630 | 390 | 720 | remain unchanged | 982 ± 43.3 | affinity at SERT T497A compared to SERT WT (human SERT T497A mutant; uptake inhibition, COS7 cells): remain unchanged
5 | Fc1ccc(C(SCCNCCCc2ccccc2)c2ccc(F)cc2)cc1 [Compound 4g, N-(2-((bis(4-fluorophenyl)methyl)thio)ethyl)-3-phenylpropan-1-amine] | – | – | – | – | – | 3850 | IV brain Conc. ng/g ± SD ([2]; 0.5 h): 4776 (1324) ng/g; IV brain Conc. ng/g ± SD ([2]; 2 h): 14111 (8093) ng/g; PO brain Conc. ng/g ± SD ([2]; 0.5 h): 369 (303) ng/g; PO brain Conc. ng/g ± SD ([2]; 2 h): 223 (90) ng/g
6 | NCCSC(c1ccc(Cl)cc1)c1ccc(Cl)cc1 [Compound 4b, 2-((bis(4-chlorophenyl)methyl)thio)ethan-1-amine] | 270 | 170 | 1210 | 1370 | remain unchanged | – | affinity at SERT T497A compared to SERT WT (human SERT T497A mutant): remain unchanged
7 | NCCSC(c1ccc(Br)cc1)c1ccc(Br)cc1 [Compound 4c, 2-((bis(4-bromophenyl)methyl)thio)ethan-1-amine] | – | – | – | – | – | – | increase in SERT affinity, halogen-substituted v. unsubstituted analog (SERT): 9 fold; improvement in DAT affinity, halogen-substituted v. unsubstituted analog (DAT): 3 fold
8 | CNC(=O)CSC(c1ccc(Br)cc1)c1ccc(Br)cc1 [Compound 2i, 2-((Bis(4-bromophenyl)methyl)thio)-N-methylacetamide] | – | – | – | – | – | 11200 | increase in SERT affinity, halogen-substituted v. unsubstituted analog (SERT): > 50 fold; improvement in DAT affinity, halogen-substituted v. unsubstituted analog (DAT): 6 fold
9 | [O-][S+](CCNCCCc1ccccc1)C(c1ccc(Br)cc1)c1ccc(Br)cc1 (centres unmarked) [Compound 5e, N-(2-((bis(4-bromophenyl)methyl)sulfinyl)ethyl)-3-phenylpropan-1-amine] | – | – | – | – | – | 7580 | selectivity among the monoamine transporters (in words) (DAT; DAT, SERT, NET binding, rat brain membranes): SERT-selective
10 | human DAT wild type (Homo sapiens) (protein) MSKSKCSVGLMSSVVAPAKEPNAVGPKEVELILVKEQNGVQLTSSTLTNPRQSPVEAQDRETWGKKIDFLLSVIGFAVDLANVWRFPYLCYKNGGGAFLVPYLLFMVIAGMPLFYMELALGQFNREGAAGVWKICPILKGVGFTVILISLYVGFFYNVIIAWALHYLFSSFTTELPWIHCNNSWNSPNCSDAHPGDSSGDSSGLNDTFGTTPAAEYFERGVLHLHQSHGIDDLGPPRWQLTACLVLVIVLLYFSLWKGVKTSGKVVWITATMPYVVLTALLLRGVTLPGAIDGIRAYLSVDFYRLCEASVWIDAATQVCFSLGVGFGVLIAFSSYNKFTNNCYRDAIVTTSINSLTSFSSGFVVFSFLGYMAQKHSVPIGDVAKDGPGLIFIIYPEAIATLPLSSAWAVVFFIMLLTLGIDSAMGGMESVITGLIDEFQLLHRHRELFTLFIVLATFLLSLFCVTNGGIYVFTLLDHFAAGTSILFGVLIEAIGVAWFYGVGQFSDDIQQMTGQRPSLYWRLCWKLVSPCFLLFVVVVSIVTFRPPHYGAYIFPDWANALGWVIATSSMAMVPIYAAYKFCSLPGSFREKLAYAIAPEKDRELVDRGEVRQFTLRHWLKV | – | – | – | – | – | – | Km [3]: 1,160 nM
